Source: ChEMBL document CHEMBL3526037, “Evaluation of the relationship between sex, polymorphisms in CYP2C8 and CYP2C9, and pharmacokinetics of angiotensin receptor blockers” (Drug Metab Dispos, 2013)
One block for each molecule: values may come before it.

Tests used:
[1] = AUC in men plasma at 25 to 320 mg by LC/MS/MS analysis; format: ADME, organism-based; conditions: male, human
[2] = AUC in women plasma at 25 to 320 mg by LC/MS/MS analysis; format: ADME, organism-based; conditions: female, human
[3] = Cmax in men plasma at 25 to 320 mg by LC/MS/MS analysis; format: ADME, organism-based; conditions: male, human
[4] = Cmax in women plasma at 25 to 320 mg by LC/MS/MS analysis; format: ADME, organism-based; conditions: female, human
[5] = Half life in men plasma at 25 to 320 mg by LC/MS/MS analysis; format: ADME, organism-based; conditions: male, human
[6] = Half life in women plasma at 25 to 320 mg by LC/MS/MS analysis; format: ADME, organism-based; conditions: female, human
[7] = Tmax in men plasma at 25 to 320 mg by LC/MS/MS analysis; format: ADME, organism-based; conditions: male, human
[8] = Tmax in women plasma at 25 to 320 mg by LC/MS/MS analysis; format: ADME, organism-based; conditions: female, human
[9] = Tmax in human plasma expressing CYP2C8*2 allele carrier polymorphism at 25 to 320 mg by LC/MS/MS analysis; format: ADME, organism-based
[10] = AUC in human plasma expressing CYP2C8*3 allele carrier polymorphism at 25 to 320 mg by LC/MS/MS analysis; format: ADME, organism-based
Homo sapiens [11] = species: Homo sapiens; assay: Cmax in human plasma expressing CYP2C8*3 allele carrier polymorphism at 25 to 320 mg by LC/MS/MS analysis; format: ADME, organism-based; conditions: in vivo
[12] = Half life in human plasma expressing CYP2C8*3 allele carrier polymorphism at 25 to 320 mg by LC/MS/MS analysis; format: ADME, organism-based
[13] = Tmax in human plasma expressing CYP2C8*3 allele carrier polymorphism at 25 to 320 mg by LC/MS/MS analysis; format: ADME, organism-based
[14] = AUC in human plasma expressing CYP2C8*4 allele carrier polymorphism at 25 to 320 mg by LC/MS/MS analysis; format: ADME, organism-based
[15] = Cmax in human plasma expressing CYP2C8*4 allele carrier polymorphism at 25 to 320 mg by LC/MS/MS analysis; format: ADME, organism-based
[16] = Half life in human plasma expressing CYP2C8*4 allele carrier polymorphism at 25 to 320 mg by LC/MS/MS analysis; format: ADME, organism-based
[17] = Tmax in human plasma expressing CYP2C8*4 allele carrier polymorphism at 25 to 320 mg by LC/MS/MS analysis; format: ADME, organism-based
Homo sapiens [18] = species: Homo sapiens; assay: AUC in human plasma expressing CYP2C9*3 allele carrier polymorphism at 25 to 320 mg by LC/MS/MS analysis; format: ADME, organism-based; conditions: in vivo
[19] = Cmax in human plasma expressing CYP2C9*3 allele carrier polymorphism at 25 to 320 mg by LC/MS/MS analysis; format: ADME, organism-based
[20] = Half life in human plasma expressing CYP2C9*3 allele carrier polymorphism at 25 to 320 mg by LC/MS/MS analysis; format: ADME, organism-based
[21] = Tmax in human plasma expressing CYP2C9*3 allele carrier polymorphism at 25 to 320 mg by LC/MS/MS analysis; format: ADME, organism-based
[22] = AUC in human plasma expressing CYP2C9*1/*1 polymorphism at 25 to 320 mg by LC/MS/MS analysis; format: ADME, organism-based
[23] = Cmax in human plasma expressing CYP2C9*1/*1 polymorphism at 25 to 320 mg by LC/MS/MS analysis; format: ADME, organism-based
[24] = Half life in human plasma expressing CYP2C9*1/*1 polymorphism at 25 to 320 mg by LC/MS/MS analysis; format: ADME, organism-based
[25] = Tmax in human plasma expressing CYP2C9*1/*1 polymorphism at 25 to 320 mg by LC/MS/MS analysis; format: ADME, organism-based
[26] = AUC in human plasma expressing CYP2C9*2 allele carrier polymorphism at 25 to 320 mg by LC/MS/MS analysis; format: ADME, organism-based
[27] = Cmax in human plasma expressing CYP2C9*2 allele carrier polymorphism at 25 to 320 mg by LC/MS/MS analysis; format: ADME, organism-based
[28] = Tmax in human plasma expressing CYP2C9*2 allele carrier polymorphism at 25 to 320 mg by LC/MS/MS analysis; format: ADME, organism-based
[29] = AUC in human plasma expressing CYP2C8*1/*1 polymorphism at 25 to 320 mg by LC/MS/MS analysis; format: ADME, organism-based
[30] = Cmax in human plasma expressing CYP2C8*1/*1 polymorphism at 25 to 320 mg by LC/MS/MS analysis; format: ADME, organism-based
[31] = Half life in human plasma expressing CYP2C8*1/*1 polymorphism at 25 to 320 mg by LC/MS/MS analysis; format: ADME, organism-based
[32] = Tmax in human plasma expressing CYP2C8*1/*1 polymorphism at 25 to 320 mg by LC/MS/MS analysis; format: ADME, organism-based
[33] = AUC in human plasma expressing CYP2C8*2 allele carrier polymorphism at 25 to 320 mg by LC/MS/MS analysis; format: ADME, organism-based
[34] = Cmax in human plasma expressing CYP2C8*2 allele carrier polymorphism at 25 to 320 mg by LC/MS/MS analysis; format: ADME, organism-based
[35] = AUC in human plasma expressing CYP2C8*1/*1 polymorphism at 50 mg by LC/MS/MS analysis; format: ADME, organism-based
[36] = Cmax in human plasma expressing CYP2C8*1/*1 polymorphism at 50 mg by LC/MS/MS analysis; format: ADME, organism-based; parameters: dose 50 mg
[37] = Half life in human plasma expressing CYP2C8*1/*1 polymorphism at 50 mg by LC/MS/MS analysis
[38] = Tmax in human plasma expressing CYP2C8*1/*1 polymorphism at 50 mg by LC/MS/MS analysis; format: ADME, organism-based
[39] = Clearance in human plasma expressing CYP2C8*1/*1 polymorphism at 50 mg by LC/MS/MS analysis; format: ADME, organism-based
[40] = AUC in human plasma expressing CYP2C8*3 allele carrier polymorphism at 50 mg by LC/MS/MS analysis; format: ADME, organism-based
[41] = Cmax in human plasma expressing CYP2C8*3 allele carrier polymorphism at 50 mg by LC/MS/MS analysis; format: ADME, organism-based; parameters: dose 50 mg
[42] = Half life in human plasma expressing CYP2C8*3 allele carrier polymorphism at 50 mg by LC/MS/MS analysis
[43] = Tmax in human plasma expressing CYP2C8*3 allele carrier polymorphism at 50 mg by LC/MS/MS analysis; format: ADME, organism-based
[44] = Clearance in human plasma expressing CYP2C8*3 allele carrier polymorphism at 50 mg by LC/MS/MS analysis; format: ADME, organism-based
[45] = AUC in human plasma expressing CYP2C8*4 allele carrier polymorphism at 50 mg by LC/MS/MS analysis; format: ADME, organism-based
[46] = Cmax in human plasma expressing CYP2C8*4 allele carrier polymorphism at 50 mg by LC/MS/MS analysis; format: ADME, organism-based; parameters: dose 50 mg
[47] = Half life in human plasma expressing CYP2C8*4 allele carrier polymorphism at 50 mg by LC/MS/MS analysis
[48] = Tmax in human plasma expressing CYP2C8*4 allele carrier polymorphism at 50 mg by LC/MS/MS analysis; format: ADME, organism-based
[49] = Clearance in human plasma expressing CYP2C8*4 allele carrier polymorphism at 50 mg by LC/MS/MS analysis; format: ADME, organism-based
[50] = AUC in human plasma expressing CYP2C9*1/*1 polymorphism at 50 mg by LC/MS/MS analysis; format: ADME, organism-based
[51] = Cmax in human plasma expressing CYP2C9*1/*1 polymorphism at 50 mg by LC/MS/MS analysis; format: ADME, organism-based; parameters: dose 50 mg
[52] = Half life in human plasma expressing CYP2C9*1/*1 polymorphism at 50 mg by LC/MS/MS analysis
[53] = Tmax in human plasma expressing CYP2C9*1/*1 polymorphism at 50 mg by LC/MS/MS analysis; format: ADME, organism-based
[54] = Clearance in human plasma expressing CYP2C9*1/*1 polymorphism at 50 mg by LC/MS/MS analysis; format: ADME, organism-based
[55] = AUC in human plasma expressing CYP2C9*2 allele carrier polymorphism at 50 mg by LC/MS/MS analysis; format: ADME, organism-based
[56] = Half life in human plasma expressing CYP2C9*2 allele carrier polymorphism at 50 mg by LC/MS/MS analysis
[57] = Tmax in human plasma expressing CYP2C9*2 allele carrier polymorphism at 50 mg by LC/MS/MS analysis; format: ADME, organism-based
[58] = Clearance in human plasma expressing CYP2C9*2 allele carrier polymorphism at 50 mg by LC/MS/MS analysis; format: ADME, organism-based
[59] = AUC in human plasma expressing CYP2C9*3 allele carrier polymorphism at 50 mg by LC/MS/MS analysis; format: ADME, organism-based
[60] = Half life in human plasma expressing CYP2C9*3 allele carrier polymorphism at 50 mg by LC/MS/MS analysis
[61] = Tmax in human plasma expressing CYP2C9*3 allele carrier polymorphism at 50 mg by LC/MS/MS analysis; format: ADME, organism-based
[62] = Clearance in human plasma expressing CYP2C9*3 allele carrier polymorphism at 50 mg by LC/MS/MS analysis; format: ADME, organism-based
[63] = Clearance in men plasma at 50 mg by LC/MS/MS analysis; format: ADME, organism-based; conditions: male, human
[64] = Clearance in women plasma at 50 mg by LC/MS/MS analysis; format: ADME, organism-based; conditions: female, human
[65] = AUC in men plasma at 50 mg by LC/MS/MS analysis; format: ADME, organism-based; conditions: male, human
[66] = AUC in women plasma at 50 mg by LC/MS/MS analysis; format: ADME, organism-based; conditions: female, human
[67] = Cmax in men plasma at 50 mg by LC/MS/MS analysis; format: ADME, organism-based; parameters: dose 50 mg; conditions: male, human
[68] = Half life in men plasma at 50 mg by LC/MS/MS analysis; conditions: male, human
[69] = Half life in women plasma at 50 mg by LC/MS/MS analysis; conditions: female, human
[70] = Tmax in men plasma at 50 mg by LC/MS/MS analysis; format: ADME, organism-based; conditions: male, human
[71] = Tmax in women plasma at 50 mg by LC/MS/MS analysis; format: ADME, organism-based; conditions: female, human

AUC [1]: 38800 ng·h/mL | AUC [2]: 38600 ng·h/mL | Cmax [3]: 4590 ng/mL | Cmax [4]: 4910 ng/mL | half-life [5]: 9.1 h | half-life [6]: 9.4 h | Tmax [7]: 3.2 h | Tmax [8]: 3.2 h | Tmax [9]: 3.1 h | AUC [10]: 37400 ng·h/mL | Cmax (Homo sapiens [11]): 4711 ng/mL | half-life [12]: 9.4 h | Tmax [13]: 3 h | AUC [14]: 39600 ng·h/mL | Cmax [15]: 4860 ng/mL | half-life [16]: 7.6 h | Tmax [17]: 2.8 h | AUC (Homo sapiens [18]): 31449 ng·h/mL | Cmax [19]: 4010 ng/mL | half-life [20]: 9.9 h | Tmax [21]: 3 h | AUC [22]: 40600 ng·h/mL | Cmax [23]: 4880 ng/mL | half-life [24]: 9.1 h | Tmax [25]: 3.3 h | AUC [26]: 38800 ng·h/mL | Cmax [27]: 4840 ng/mL | Tmax [28]: 3 h | AUC [29]: 36500 ng·h/mL | Cmax [30]: 4550 ng/mL | half-life [31]: 9.3 h | Tmax [32]: 3.3 h | AUC [33]: 55100 ng·h/mL | Cmax [34]: 6140 ng/mL
SMILES: CCCCC(=O)N(Cc1ccc(-c2ccccc2-c2nnn[nH]2)cc1)[C@H](C(=O)O)C(C)C

AUC [35]: 504 ng·h/mL | Cmax [36]: 263 ng/mL | half-life [37]: 2.3 h | Tmax [38]: 1.3 h | clearance [39]: 28.3 mL/min/kg | AUC [40]: 413 ng·h/mL | Cmax [41]: 231 ng/mL | half-life [42]: 2.5 h | Tmax [43]: 1 h | clearance [44]: 31.7 mL/min/kg | AUC [45]: 494 ng·h/mL | Cmax [46]: 345 ng/mL | half-life [47]: 2.7 h | Tmax [48]: 0.9 h | clearance [49]: 26.7 mL/min/kg | AUC [50]: 473 ng·h/mL | Cmax [51]: 258 ng/mL | half-life [52]: 2.3 h | Tmax [53]: 1.3 h | clearance [54]: 30 mL/min/kg | AUC [55]: 366 ng·h/mL | half-life [56]: 2.4 h | Tmax [57]: 1.1 h | clearance [58]: 31.7 mL/min/kg | AUC [59]: 637 ng·h/mL | half-life [60]: 3.1 h | Tmax [61]: 1 h | clearance [62]: 21.7 mL/min/kg | clearance [63]: 27.7 mL/min/kg | clearance [64]: 30.3 mL/min/kg | AUC [65]: 455 ng·h/mL | AUC [66]: 519 ng·h/mL | Cmax [67]: 234 ng/mL | half-life [68]: 2.5 h | half-life [69]: 2.4 h | Tmax [70]: 1.2 h | Tmax [71]: 1.2 h
SMILES: CCCCc1nc(Cl)c(CO)n1Cc1ccc(-c2ccccc2-c2nn[nH]n2)cc1 [LOSARTAN]
